Entries after “also recorded” stand apart in the source; their conditions may differ.
Assays:
[1] = tested on: response element RARE of RARβ gene, endogenic retinoic receptors, HRLN lineage; assay: HRLN transactivation (RARE-luciferase, stably transfected HeLa); format: cell-based; settings: for Emax: Homo sapiens, HeLa, read-out: HRLN transactivation, E max
How it was run: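 Luciferase reporter read-out, in duplicate and shielded from light, in phenol red-free DMEM plus 3% dextran-charcoal-stripped FCS. The HeLa-derived line expresses endogenous retinoid receptors and stably harbours luciferase under the natural RARβ-gene RARE (RARE3-tk-Luc).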

[2] = tested on: RARγ-ERcassette; assay: Transactivation, chimerical receptor RARγ-ERcassette (HeLa); format: cell-based; settings: TTNPB 10^-8 M = 100
How it was run: (§1)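 HeLa cells were transiently co-transfected by calcium phosphate co-precipitation with […] chimeric receptor plasmid (RAR DNA-binding C domain replaced by the oestrogen receptor's; A, B, D, E, F regions kept), […] ERE-luciferase reporter and […] CMV-β-galactosidase control. Compounds were applied 24 h later for 16 h.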

[3] = tested on: RAR-ERcassettes (RARα, RARβ, RARγ); assay: Chimerical receptors RAR-ERcassettes, overall profile; format: cell-based
How it was run: as §1

[4] = tested on: T-47D cells; assay: Effect on oestrogen-induced proliferation of T-47D cells; format: cell-based, human; settings: for activity at 1 µM: Homo sapiens, T47D, 168 h, 10^-6 M, 100% = E2 10^-9 M, read-out: growth of T-47D cells
[5] = tested on: Gal4-RARα; assay: Transactivation, chimerical receptor Gal4-RARα (transitory transfection of HeLa); format: cell-based; settings: 100% = TTNPB 10^-8 M
[6] = tested on: RARE, endogenic RAR and RXR receptors, HRL+N lineage; assay: HRL+N transactivation (RARE-luciferase, stably transfected HeLa); format: cell-based; settings: for Emax: Homo sapiens, HeLa, read-out: HRL+N transactivation, E max (Table 27)
Method: MCF-7 cells and HeLa are cultivated in DMFM with phenol red to which 5% foetal calf serum is added. The T47-D cells are cultivated in RPMI to which 10% foetal calf serum is added. The experimental tests are carried out in DMEM without phenol red to which foetal calf serum treated with dextran carbon is added at 3%. […] The experiments using the different retinoids are carried out sheltered from the light so as to avoid any isomerisation.
Certain properties of the retinoids have been determined using more developed cellular models. These models consist of cellular lineages transfected in a stable fashion by recombinant plasmids which place the expression of the gene of the luciferase under the control of different nuclear response elements. […] The tests carried out in duplicate are described below for each of these models.
The cellular lineages HRLN and HRL+N allow one to study the activation of an RARE by endogenic receptors using ligands at physiological concentrations. These lineages derive from HeLa cells transfected in a stable fashion by a reporter gene which places the expression of the gene of the luciferase under the control of a nuclear response element RARE (RARE3 -tk-Luc). The HeLa cells express all the known receptors of the retinoic acid (RARα,β,γ and RXRα,β,γ) with a predominance of RARα and RXRα. The response element RARE used for the HRLN cells corresponds to the sequence of the natural gene of the RARβ receptor (GGTTCAnnnnnAGTTCA). The HRL+N cells comprise the sequence GAGTGAnnnnnCGGTGA.
The HRL+N lineage allows one to visualise a co-activation of the RAR and RXR receptors at the level of the RAR-RXR hetero-dimer.

[7] = tested on: RARα-ERcassette; assay: Transactivation, chimerical receptor RARα-ERcassette (HeLa); format: cell-based; settings: TTNPB 10^-8 M = 100
How it was run: as §1

[8] = tested on: RARβ-ERcassette; assay: Transactivation, chimerical receptor RARβ-ERcassette (HeLa); format: cell-based; settings: TTNPB 10^-8 M = 100
How it was run: as §1

[9] = tested on: AP-1, MTLN lineage (MCF-7); assay: Anti-AP-1 effect, MTLN lineage activated by TPA; format: cell-based, human; settings: for inhibition at 1 µM / inhibition at 0.1 µM: Homo sapiens, MCF7, cells activated by 10^-7 M TPA, range of several experiments; for inhibition at 1 µM: 10^-6 M; for inhibition at 0.1 µM: 10^-7 M, read-out: anti-AP-1 effect, inhibition; for anti-AP-1 effect (in words): TPA-activated MTLN cells
How it was run: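 Percent inhibition of AP-1-driven luciferase after basal activity deduction, expressed as a range across repeat experiments. Cells: MTLN, an MCF-7 line stably transfected with p(TRE)3-tk-Luc and stimulated with 10^-7 M TPA; tests in duplicate.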

[10] = tested on: Gal4-RARβ; assay: Transactivation, chimerical receptor Gal4-RARβ (transitory transfection of HeLa); format: cell-based; settings: 100% = TTNPB 10^-8 M
[11] = tested on: A549 human pulmonary cancer cells; assay: MTT test, proliferation of A549; format: cell-based; settings: for activity at 100 µM / activity at 1 µM / activity at 0.01 µM: Homo sapiens, 72 h, control = 100%, read-out: level of proliferation; for activity at 100 µM: A549, 10^-4 M; for activity at 1 µM: A549, 10^-6 M; for activity at 0.01 µM: A549, 10^-8 M; for effect on cellular increase, A549 (in words): MTT test

Row | SMILES | HRLN transactivation (in words) [1] | RAR-ERcassette RARγ transactivation ([2]; 10^-6 M) | RAR-ERcassette RARγ transactivation ([2]; 10^-7 M) | RAR-ERcassette profile (in words) [3] | activity at 1 µM ([4]; 7 days) | GAL4-RAR RARα transactivation ([5]; 10^-6 M) | HRL+N transactivation (in words) [6] | RAR-ERcassette RARα transactivation ([7]; 10^-6 M) | RAR-ERcassette RARα transactivation ([7]; 10^-7 M) | RAR-ERcassette RARβ transactivation ([8]; 10^-6 M) | RAR-ERcassette RARβ transactivation ([8]; 10^-7 M) | inhibition at 1 µM [9] | GAL4-RAR RARβ transactivation ([10]; 10^-6 M) | Emax [1] | RAR-ERcassette RARγ transactivation ([2]; 10^-8 M) | activity at 100 µM [11] | activity at 1 µM [11] | activity at 0.01 µM [11] | Emax [6] | RAR-ERcassette RARα transactivation ([7]; 10^-8 M) | further results
1 | C/C(=C/c1ccc2c(c1)C(C)(C)CCC2(C)C)c1ccc(C(=O)O)nc1 [CB16279, (Z) 5-[1-(5,6,7,8-tetrahydro-5,5,8,8-tetramethyl-2-naphthalenyl)-2-propenyl]pyridinyl-2-carboxylic acid] | induce a transactivation close to that of TTNPB | 71% | 15% | induce a transactivation mediated by the three receptors | 84% | 33% | bring about a transactivation greater than RAR selective agonists (TTNPB) | 60% | 6% | 118% | 60% | 23 to 26% | 47% |  |  |  |  |  |  |  | 
2 | C/C(=C/c1ccc2c(c1)C(C)(C)CCC2(C)C)c1ccc(C(=O)O)cc1 [CB28628, reference compound] |  | 92% | 87% | complete agonist for RARγ-ERcassetteand induce an over-activation of RARα-ERcassette and RARβ-ERcassette at 1 μM | 33% |  | induces a transactivation maximum greater than that of TTNPB | 179% | 95% | 183% | 115% | 58% |  | 98% | 55% | 12.4% | 93.4% | 109% | 158% | 35% | inhibition of growth (of the order of) ([4]; estradiol 10^-9 M, 7 days): ~70%; GAL4-RAR RARα transactivation ([5]; 10^-7 M): 103%; RAR-ERcassette RARβ transactivation ([8]; 10^-8 M): 88%; inhibition at 0.1 µM [9]: 40%; anti-AP-1 effect (in words) [9]: exhibits a strong anti-AP-1 effect on the MCF-7 cells; GAL4-RAR RARβ transactivation ([10]; 10^-7 M): 102%
3 | C/C(=C/c1ccc2c(c1)C(C)(C)CCC2(C)C)c1ccc(C(=O)O)cn1 [CB38416, (Z) 2-[1-(5,6,7,8-tetrahydro-5,5,8,8-tetramethyl-2-naphthalenyl)-2-propenyl]pyridinyl-5-carboxylic acid] | induce a transactivation close to that of TTNPB | 62% | 14% | induce a transactivation mediated by the three receptors | 50 to 60% | 58% | bring about a transactivation greater than RAR selective agonists (TTNPB) | 65% | 7% | 198% | 57% | 21 to 25% | 51% | 81% | 4% | 109% | 105% | 126% | 131% | 0% | RAR-ERcassette RARβ transactivation ([8]; 10^-8 M): 10%; inhibition at 0.1 µM [9]: 7 to 14%
4 | CC1(C)CCC(C)(C)c2cc(/C=C(\c3ccc(-c4nnn[nH]4)cc3)C(F)(F)F)ccc21 [CB77402, (E) 5-[4-[1-trifluoromethyl-2-(5,6,7,8-tetrahydro-5,5,8,8-tetramethyl-2-naphthalenyl)-1-ethenyl]phenyl]-1H-tetrazole] | very feebly active | 8% | 0% | do not permit transactivation mediated by RARα-ERcassette and RARγ-cassette. However, a partial transactivation of RARβ-ERcassette is observed; also recorded: with a specific RAR agonist permits an over-activation of the effect of the RAR molecule alone for the three RAR-ERcassette receptors |  | 6% | weak transactivation, less than that of TTNPB; also recorded: with a specific RAR agonist induces a stronger transactivation than that observed for each compound tested separately | 8% | 1% | 37% | 31% | 30 to 33% | 0% | 18% | 0% | 10.7% | 86% | 93.1% | 33% | 0% | effect on cellular increase, A549 (in words) [11]: show activity on the increase of these two lineages; RAR-ERcassette RARβ transactivation ([8]; 10^-8 M): 0%; inhibition at 0.1 µM [9]: 21 to 23%; anti-AP-1 effect (in words) [9]: anti-AP-1 molecules through RXR; also recorded: additive nature of the anti-AP-1 inhibitor effect
5 | C/C(=C/c1ccc2c(c1)C(C)(C)CCC2(C)C)c1ccc(-c2nnn[nH]2)cc1 [CB92834] | very feebly active | 0% | 7% | do not permit transactivation mediated by RARα-ERcassette and RARγ-cassette. However, a partial transactivation of RARβ-ERcassette is observed; also recorded: with a specific RAR agonist permits an over-activation of the effect of the RAR molecule alone for the three RAR-ERcassette receptors | 94% | 8% | weak transactivation, less than that of TTNPB; also recorded: with a specific RAR agonist induces a stronger transactivation than that observed for each compound tested separately; also recorded: over-activation by CB92834 of the transactivation induced by a selective RAR agonist on the HRL+N lineage | 11% | 9% | 43% | 36% | 20 to 23% | 0% | 21% | 2% | 14.4% | 109% | 105% | 42% | 0% | effect on cellular increase, A549 (in words) [11]: show activity on the increase of these two lineages; effect on oestrogen-induced growth, T-47D (in words) ([4]; estradiol 10^-9 M): inactive on the oestrogen-induced growth; RAR-ERcassette RARβ transactivation ([8]; 10^-8 M): 0%; inhibition at 0.1 µM [9]: 4 to 9%; anti-AP-1 effect (in words) [9]: anti-AP-1 molecules through RXR
